The numbers were not newly measured in US7825087B2 (Elan Pharma International Limited, priority 2005, dated 2010), which cites them from elsewhere.

For series [1] the following is noted: distribution in blood, concentration dependent.
The test system of a further series is bone marrow. Particulars: animal models or man.

Turning to “[R—[R*,R*-(E)]]-cyclic (L-alanyl-D-alanyl-N-methyl-L-leucyl-N-methyl-L-leucyl-N-methyl-L-valyl-3-hydroxy-N,4-dimethyl-L-2-amino-6-octenoyl-L-(alpha)-amino-butyryl-N-methylglycyl-N-methyl-L-leucyl-L-valyl-N-methyl-L-leucyl) [cyclosporine]”, in series [1], the fraction in erythrocytes was 41%-58%, the fraction in granulocytes is recorded as 5%-12% and the fraction in lymphocytes was 4%-9%. Also, in the series on bone marrow, the bone marrow suppression result is on record as “does not cause bone marrow suppression”.
